From ChEMBL document CHEMBL1201862, “PubChem BioAssay data set” (2004)
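Growth conditions: 96-well plates. Treatment: test compound, 48 hours, 5 concentrations. Analysis: linear interpolation between bracketing concentrations; unreached endpoints set to highest concentration. GI50 is the concentration that inhibits growth by half.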 Activity calls are given as the source filed them. No stated cut-off is given here; in the data, active = GI50 up to about 1.1 µM and inactive = higher. Square brackets hold non-standard residues; d marks the D form. Peptide text beside a SMILES is read from it. * marks the point of attachment. ξ: configuration not given here. ξW = NC(Cc1c[nH]c2ccccc12)C(=O)O; X29 = O=C(O)[C@H]1CCC[C@H]1N*; ξF = NC(Cc1ccccc1)C(=O)O; Boc = CC(C)(C)OC(=O)*; ξK = NCCCCC(N)C(=O)O; ξT = CC(O)C(N)C(=O)O; tBu = CC(C)(C)*

Legend:
Test in all cases: NCI-60 cell line screen, 48 h
K562 = tested on: K562
KM12 = tested on: KM12
786-0 = tested on: 786-0
SN12C = tested on: SN12C
M14 = tested on: M14
IGROV-1 = tested on: IGROV-1
UACC-257 = tested on: UACC-257
A549 = tested on: A549
HOP-62 = tested on: HOP-62
MDA-MB-435 = tested on: MDA-MB-435
SF-268 = tested on: SF-268
COLO 205 = tested on: COLO 205
HT-29 = tested on: HT-29
RXF 393 = tested on: RXF 393
HL-60 = tested on: HL-60
SW-620 = tested on: SW-620
CCRF-CEM = tested on: CCRF-CEM
HCT-116 = tested on: HCT-116
NCI-H23 = tested on: NCI-H23
MOLT-4 = tested on: MOLT-4
HCC 2998 = tested on: HCC 2998
EKVX = tested on: EKVX
NCI-H460 = tested on: NCI-H460
UACC-62 = tested on: UACC-62
HCT-15 = tested on: HCT-15
UO-31 = tested on: UO-31
SR = tested on: SR
TK-10 = tested on: TK-10
SNB-75 = tested on: SNB-75
MDA-N = tested on: MDA-N
NCI-H226 = tested on: NCI-H226
LOX IMVI = tested on: LOX IMVI
Malme-3M = tested on: Malme-3M
Hs-578T = tested on: Hs-578T
SF-295 = tested on: SF-295
T47D = tested on: T47D
RPMI-8226 = tested on: RPMI-8226
SNB-19 = tested on: SNB-19
SK-MEL-28 = tested on: SK-MEL-28
ACHN = tested on: ACHN
U-251 = tested on: U-251
SK-MEL-5 = tested on: SK-MEL-5
NCI-H522 = tested on: NCI-H522
CAKI-1 = tested on: CAKI-1
OVCAR-3 = tested on: OVCAR-3
OVCAR-8 = tested on: OVCAR-8
MDA-MB-231 = tested on: MDA-MB-231
MCF7 = tested on: MCF7
SF-539 = tested on: SF-539
NCI/ADR-RES = tested on: NCI/ADR-RES
DU-145 = tested on: DU-145
OVCAR-5 = tested on: OVCAR-5
SK-MEL-2 = tested on: SK-MEL-2
PC-3 = tested on: PC-3
OVCAR-4 = tested on: OVCAR-4
HOP-92 = tested on: HOP-92
SK-OV-3 = tested on: SK-OV-3

Measured: GI50

COc1cc(CNc2nc3cc(C(F)(F)F)ccc3nc2-c2ccccc2)cc(OC)c1OC
inactive: K562 22.5 µM | KM12 14.8 µM | 786-0 30 µM | SN12C 24.3 µM | M14 30.5 µM | IGROV-1 25.9 µM | UACC-257 33.6 µM | A549 37.3 µM | HOP-62 43.5 µM | MDA-MB-435 28.5 µM | SF-268 40.6 µM | COLO 205 17.1 µM | HT-29 23.7 µM | RXF 393 10.6 µM | HL-60 18.5 µM | SW-620 39.2 µM | CCRF-CEM 24.9 µM | HCT-116 19.1 µM | NCI-H23 21 µM | MOLT-4 12.9 µM | HCC 2998 19.8 µM | EKVX 10.9 µM | NCI-H460 25.4 µM | UACC-62 8.53 µM | UO-31 31.6 µM | SR 15.9 µM | TK-10 > 100 µM | SNB-75 5.79 µM | MDA-N 30.6 µM | NCI-H226 32.3 µM | LOX IMVI 28.6 µM | Malme-3M 21.3 µM | Hs-578T 37.4 µM | SF-295 41.8 µM | T47D 1.65 µM | RPMI-8226 25.6 µM | SNB-19 > 100 µM | SK-MEL-28 49.7 µM | ACHN 16.7 µM | U-251 27 µM | SK-MEL-5 25.2 µM | NCI-H522 22.3 µM | CAKI-1 39.4 µM | OVCAR-3 24.6 µM | OVCAR-8 33.2 µM | MDA-MB-231 20.6 µM | MCF7 1.52 µM | SF-539 43.1 µM | NCI/ADR-RES 14.8 µM | DU-145 89.7 µM
17.3 µM: HCT-15

O=c1[nH]c(=O)n(COCCO)cc1-c1ccccc1
inactive: K562 > 100 µM | KM12 > 100 µM | 786-0 > 100 µM | SN12C > 100 µM | OVCAR-5 > 100 µM | M14 > 100 µM | IGROV-1 > 100 µM | UACC-257 > 100 µM | A549 > 100 µM | HOP-62 > 100 µM | MDA-MB-435 > 100 µM | SF-268 > 100 µM | COLO 205 > 100 µM | HT-29 > 100 µM | HL-60 > 100 µM | SW-620 > 100 µM | CCRF-CEM > 100 µM | HCT-116 > 100 µM | SK-MEL-2 > 100 µM | NCI-H23 > 100 µM | MOLT-4 > 100 µM | HCC 2998 > 100 µM | EKVX > 100 µM | NCI-H460 > 100 µM | UACC-62 > 100 µM | UO-31 > 100 µM | SR > 100 µM | TK-10 > 100 µM | MDA-N > 100 µM | LOX IMVI > 100 µM | Malme-3M > 100 µM | Hs-578T > 100 µM | SF-295 > 100 µM | PC-3 > 100 µM | T47D > 100 µM | RPMI-8226 > 100 µM | SNB-19 > 100 µM | SK-MEL-28 > 100 µM | OVCAR-4 > 100 µM | ACHN > 100 µM | U-251 > 100 µM | SK-MEL-5 > 100 µM | NCI-H522 > 100 µM | HOP-92 > 100 µM | CAKI-1 > 100 µM | SK-OV-3 > 100 µM | OVCAR-3 > 100 µM | OVCAR-8 > 100 µM | MDA-MB-231 > 100 µM | MCF7 > 100 µM | NCI/ADR-RES > 100 µM | DU-145 > 100 µM
> 100 µM: HCT-15

CC(OC(C)(C)C)C(NC(=O)C(CCCCNC(=O)OC(C)(C)C)NC(=O)C(Cc1c[nH]c2ccccc12)NC(=O)C(N)Cc1ccccc1)C(=O)NC(Cc1ccccc1)C(=O)N[C@@H]1CCC[C@@H]1C(=O)O (stereo not given in full) (H-[ξF][ξW][ξK](Boc)[ξT](tBu)[ξF]-X29)
inactive: K562 51.6 µM | KM12 19.4 µM | 786-0 > 100 µM | SN12C 28.2 µM | OVCAR-5 23.2 µM | M14 > 100 µM | IGROV-1 51.4 µM | UACC-257 > 100 µM | A549 > 100 µM | HOP-62 > 100 µM | MDA-MB-435 37.2 µM | SF-268 44.8 µM | COLO 205 27.4 µM | HT-29 29.6 µM | RXF 393 > 100 µM | HL-60 29 µM | SW-620 47.1 µM | CCRF-CEM 36.2 µM | HCT-116 39.5 µM | SK-MEL-2 16.7 µM | NCI-H23 34 µM | MOLT-4 41.6 µM | HCC 2998 19.7 µM | EKVX > 100 µM | NCI-H460 > 100 µM | UACC-62 33.4 µM | UO-31 > 100 µM | SR 35.5 µM | SNB-75 59.6 µM | MDA-N 52.1 µM | NCI-H226 28.5 µM | LOX IMVI 20.8 µM | Malme-3M 40 µM | Hs-578T 19.9 µM | SF-295 > 100 µM | PC-3 45.6 µM | T47D 33.8 µM | RPMI-8226 35.2 µM | SNB-19 33.6 µM | SK-MEL-28 75.5 µM | OVCAR-4 71.4 µM | ACHN > 100 µM | U-251 24.3 µM | SK-MEL-5 11.1 µM | NCI-H522 20.7 µM | HOP-92 30.3 µM | CAKI-1 > 100 µM | SK-OV-3 38.8 µM | OVCAR-3 37.1 µM | OVCAR-8 > 100 µM | MDA-MB-231 38.6 µM | MCF7 27 µM | SF-539 19.4 µM | NCI/ADR-RES > 100 µM | DU-145 46.2 µM
> 10 µM: HCT-15
